Laboratory results published in US20050106111A1, “Compositions and methods for reducing dental plaque” (Aphios Corporation, priority 2003, published 2005).
Converted amounts (≈) assume the structure as drawn. Where two headings read alike, the source gives them in different places.

What was measured:
[1] = clinical trials; cited from earlier work
[2] = system: A. actinomycetemcomitans; experiment: Minimum bactericidal concentration (MBC) against A. actinomycetemcomitans; type: cell-based; details: Aggregatibacter actinomycetemcomitans
From the text: (§1) Minimum inhibitory concentrations (MIC) can be determined to identify the minimum concentration of a composition needed to inhibit the growth of the target organism using methods well known to those skilled in the art. Minimum bactericidal concentrations (MBC) can be determined to identify the minimum concentration of a composition needed to kill the target organism using methods well known to those skilled in the art. The MBC can be determined from the same plates set up for the MIC.
(§2) Cultures of Actinomyces viscosus, Streptococcus mutans, and Actinobacillus actinomycete-mcomitans were obtained from the American Type Culture Collection (ATCC) following instructions provided by ATCC. Frozen stocks of each bacteria were prepared by adding 10% (v/v) volume of glycerol to an overnight culture; aliquots of the resulting suspension were then frozen at −80° C.
(§3) Minimum inhibitory concentrations (MIC) were determined to identify the minimum concentration of a compound needed to inhibit the growth of the target organism. Minimum bactericidal concentrations (MBC) were determined to identify the minimum concentration of a compound needed to kill the target organism. The MBC was determined from the same plates set up for the MIC.

[3] = system: Actinomyces viscosus; experiment: Minimum bactericidal concentration (MBC) against A. viscosus; type: cell-based
From the text: as §1, §2, §3

[4] = system: Streptococcus mutans; experiment: Minimum inhibitory concentration (MIC) against S. mutans; type: cell-based
From the text: as §1, §2, §3

[5] = system: Streptococcus mutans; experiment: Minimum bactericidal concentration (MBC) against S. mutans; type: cell-based
From the text: as §1, §2, §3

[6] = system: Actinomyces viscosus; experiment: Minimum inhibitory concentration (MIC) against A. viscosus; type: cell-based
From the text: as §1, §2, §3

[7] = system: A. actinomycetemcomitans; experiment: Minimum inhibitory concentration (MIC) against A. actinomycetemcomitans; type: cell-based; details: Aggregatibacter actinomycetemcomitans
From the text: as §1, §2, §3

[8] = system: A. actinomycetemcomitans; experiment: Biofilm assay, bactericidal activity against A. actinomycetemcomitans in a biofilm on a solid support; type: cell-based; details: 125 μg/mL, 1 hour incubation in test agent
Protocol: (§4) A biofilm assay can be conducted to assess the bactericidal activity of the target compositions when the challenge organisms are contained within a biofilm. The semi-purified Vibrio gazogenes extract can be assayed for bactericidal activity against orally-relevant microbes contained in a biofilm grown on a solid support.
as §4, with “was” for “can be”, “access” for “assess”, “compounds” for “compositions”

[9] = system: S. mutans; experiment: Biofilm assay, bactericidal activity against S. mutans in a biofilm on a solid support; type: cell-based; details: 125 μg/mL, 1 hour incubation in test agent
Protocol: as §4
as §4, with “was” for “can be”, “access” for “assess”, “compounds” for “compositions”

[10] = system: A. viscosus; experiment: Biofilm assay, bactericidal activity against A. viscosus in a biofilm on a solid support; type: cell-based; details: 125 μg/mL, 1 hour incubation in test agent
Protocol: as §4
as §4, with “was” for “can be”, “access” for “assess”, “compounds” for “compositions”

[11] = system: mice; details: cited from earlier work

N=C(NCCCCCCNC(=N)NC(=N)Nc1ccc(Cl)cc1)NC(=N)Nc1ccc(Cl)cc1.O=C(O)[C@H](O)[C@@H](O)[C@H](O)[C@H](O)CO.O=C(O)[C@H](O)[C@@H](O)[C@H](O)[C@H](O)CO [CHG, chlorhexidine digluconate]
reduced gingivitis [1]: 50-80%

[H]/N=C(\N/C(=N/[H])NCCCCCCNC(=N)NC(=N)Nc1ccc(Cl)cc1)Nc1ccc(Cl)cc1 [Chlorhexidine, chlorhexidine]
MBC ([2]; A. actinomycetemcomitans, read-out: MBC): 3.9 µg/mL (≈ 7.72 µM)
MBC ([3]; A. viscosus, read-out: MBC): 7.8 µg/mL (≈ 15.4 µM)
MIC ([4]; S. mutans, read-out: MIC): 1.95 µg/mL (≈ 3.86 µM)
MBC ([5]; S. mutans, read-out: MBC): 1.95 µg/mL (≈ 3.86 µM)
MIC ([6]; A. viscosus, read-out: MIC): 3.9 µg/mL (≈ 7.72 µM)
MIC ([7]; A. actinomycetemcomitans, read-out: MIC): 3.9 µg/mL (≈ 7.72 µM)

Oc1cc(Cl)ccc1Oc1ccc(Cl)cc1Cl [Triclosan, 5-chloro-2-(2,4-dichlorophenoxy)-phenol]
Microbial Biofilm Control (bacteria count after treatment) [8]: 2.1 × 10^6
MBC [2]: < 0.75 µg/mL
MBC [3]: 3.9 µg/mL (≈ 13.5 µM)
Microbial Biofilm Control (bacteria count after treatment) [9]: 0
MIC [4]: 7.8 µg/mL (≈ 26.9 µM)
MBC [5]: 15.6 µg/mL (≈ 53.9 µM)
MIC [6]: 3.9 µg/mL (≈ 13.5 µM)
MIC [7]: < 0.75 µg/mL
Microbial Biofilm Control (bacteria count after treatment) [10]: 6.0 × 10^5

magnesidin
LD50 ([11]; intraperitoneal): 50 mg/kg
LD50 ([11]; oral or subcutaneous): 1,000 mg/kg
